{"source": "the supplement of paper PMC10307832", "experiment_in_all_cases": "relative viability (nuclei count vs DMSO), 5 days (fraction); higher = more cells survive", "key": {"[1]": {"system": "LOU-NH91", "procedure,_shortened": "(§1)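 One day after seeding in 1536-well plates, lung cancer cell lines were dosed by pin tool. Dosing was either single-drug or a fixed anchor-drug dose plus five library-drug doses (not always all listed) in √10 steps. After 5 days, nuclei were stained in one fix-and-stain step and counted on 4× images, and relative viability is the nuclei count of treated wells over that of vehicle wells, given as the median of duplicate plates.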"}, "[2]": {"system": "A-427", "procedure,_shortened": "as §1"}, "[3]": {"system": "H3255", "procedure,_shortened": "as §1"}, "[4]": {"system": "NCI-H441", "procedure,_shortened": "as §1"}, "[5]": {"system": "ChaGo-K-1", "procedure,_shortened": "as §1"}, "[6]": {"system": "NCI-H1755", "procedure,_shortened": "as §1"}, "[7]": {"system": "LK-2", "procedure,_shortened": "as §1"}, "[8]": {"system": "HCC-366", "procedure,_shortened": "as §1"}, "[9]": {"system": "NCI-H2170", "procedure,_shortened": "as §1"}, "[10]": {"system": "SK-MES-1", "procedure,_shortened": "as §1"}, "[11]": {"system": "EKVX", "procedure,_shortened": "as §1"}, "[12]": {"system": "NCI-H1734", "procedure,_shortened": "as §1"}, "[13]": {"system": "NCI-H1975", "procedure,_shortened": "as §1"}, "[14]": {"system": "EMC-BAC-2", "procedure,_shortened": "as §1"}, "[15]": {"system": "NCI-H596", "procedure,_shortened": "as §1"}, "[16]": {"system": "NCI-H520", "procedure,_shortened": "as §1"}, "[17]": {"system": "COR-L 105", "procedure,_shortened": "as §1"}, "[18]": {"system": "NCI-H23", "procedure,_shortened": "as §1"}, "[19]": {"system": "NCI-H1666", "procedure,_shortened": "as §1"}, "[20]": {"system": "PC-3 [JPC-3]", "procedure,_shortened": "as §1"}}}
{"compound": "CCN(CC)CCCCNc1ncc2cc(-c3cc(OC)cc(OC)c3)c(NC(=O)NC(C)(C)C)nc2n1", "note": "+ CC1(C)CCC(c2ccc(Cl)cc2)=C(CN2CCN(c3ccc(C(=O)NS(=O)(=O)c4ccc(N[C@H](CCN5CCOCC5)CSc5ccccc5)c(S(=O)(=O)C(F)(F)F)c4)cc3)CC2)C1 [Navitoclax] (partner 0.5 µM)", "values": [{"measurement": "relative viability", "setting": "[1]; first compound 0.01 µM", "result": 0.611}, {"measurement": "relative viability", "setting": "[1]; first compound 0.03162 µM", "result": 0.674}, {"measurement": "relative viability", "setting": "[1]; first compound 0.1 µM", "result": 0.718}, {"measurement": "relative viability", "setting": "[1]; first compound 0.3162 µM", "result": 0.795}, {"measurement": "relative viability", "setting": "[1]; first compound 1 µM", "result": 0.722}, {"measurement": "relative viability", "setting": "[2]; first compound 0.01 µM", "result": 0.991}, {"measurement": "relative viability", "setting": "[2]; first compound 0.03162 µM", "result": 1.03}, {"measurement": "relative viability", "setting": "[2]; first compound 0.1 µM", "result": 1.11}, {"measurement": "relative viability", "setting": "[2]; first compound 0.3162 µM", "result": 1.08}, {"measurement": "relative viability", "setting": "[2]; first compound 1 µM", "result": 0.908}, {"measurement": "relative viability", "setting": "[3]; first compound 0.01 µM", "result": 0.496}, {"measurement": "relative viability", "setting": "[3]; first compound 0.03162 µM", "result": 0.413}, {"measurement": "relative viability", "setting": "[3]; first compound 0.1 µM", "result": 0.65}, {"measurement": "relative viability", "setting": "[3]; first compound 0.3162 µM", "result": 0.729}, {"measurement": "relative viability", "setting": "[3]; first compound 1 µM", "result": 0.502}, {"measurement": "relative viability", "setting": "[4]; first compound 0.01 µM", "result": 0.547}, {"measurement": "relative viability", "setting": "[4]; first compound 0.03162 µM", "result": 0.714}, {"measurement": "relative viability", "setting": "[4]; first compound 0.1 µM", "result": 1.2}, {"measurement": "relative viability", "setting": "[4]; first compound 0.3162 µM", "result": 0.827}, {"measurement": "relative viability", "setting": "[4]; first compound 1 µM", "result": 0.618}, {"measurement": "relative viability", "setting": "[5]; first compound 0.01 µM", "result": 0.844}, {"measurement": "relative viability", "setting": "[5]; first compound 0.03162 µM", "result": 0.893}, {"measurement": "relative viability", "setting": "[5]; first compound 0.1 µM", "result": 1.49}, {"measurement": "relative viability", "setting": "[5]; first compound 0.3162 µM", "result": 1.16}, {"measurement": "relative viability", "setting": "[5]; first compound 1 µM", "result": 0.716}, {"measurement": "relative viability", "setting": "[6]; first compound 0.01 µM", "result": 1.14}, {"measurement": "relative viability", "setting": "[6]; first compound 0.03162 µM", "result": 1.08}, {"measurement": "relative viability", "setting": "[6]; first compound 0.1 µM", "result": 1.07}, {"measurement": "relative viability", "setting": "[6]; first compound 0.3162 µM", "result": 1.09}, {"measurement": "relative viability", "setting": "[6]; first compound 1 µM", "result": 0.987}, {"measurement": "relative viability", "setting": "[7]; first compound 0.01 µM", "result": 0.918}, {"measurement": "relative viability", "setting": "[7]; first compound 0.03162 µM", "result": 0.841}, {"measurement": "relative viability", "setting": "[7]; first compound 0.1 µM", "result": 0.8}, {"measurement": "relative viability", "setting": "[7]; first compound 0.3162 µM", "result": 0.732}, {"measurement": "relative viability", "setting": "[7]; first compound 1 µM", "result": 0.36}, {"measurement": "relative viability", "setting": "[8]; first compound 0.01 µM", "result": 1.16}, {"measurement": "relative viability", "setting": "[8]; first compound 0.03162 µM", "result": 1.09}, {"measurement": "relative viability", "setting": "[8]; first compound 0.1 µM", "result": 1.2}, {"measurement": "relative viability", "setting": "[8]; first compound 0.3162 µM", "result": 1.27}, {"measurement": "relative viability", "setting": "[8]; first compound 1 µM", "result": 1.2}, {"measurement": "relative viability", "setting": "[9]; first compound 0.01 µM", "result": 0.586}, {"measurement": "relative viability", "setting": "[9]; first compound 0.03162 µM", "result": 0.75}, {"measurement": "relative viability", "setting": "[9]; first compound 0.1 µM", "result": 0.558}, {"measurement": "relative viability", "setting": "[9]; first compound 0.3162 µM", "result": 0.641}, {"measurement": "relative viability", "setting": "[9]; first compound 1 µM", "result": 0.528}, {"measurement": "relative viability", "setting": "[10]; first compound 0.01 µM", "result": 1.27}, {"measurement": "relative viability", "setting": "[10]; first compound 0.03162 µM", "result": 1.37}, {"measurement": "relative viability", "setting": "[10]; first compound 0.1 µM", "result": 1.6}, {"measurement": "relative viability", "setting": "[10]; first compound 0.3162 µM", "result": 1.36}, {"measurement": "relative viability", "setting": "[10]; first compound 1 µM", "result": 1.22}, {"measurement": "relative viability", "setting": "[11]; first compound 0.01 µM", "result": 0.946}, {"measurement": "relative viability", "setting": "[11]; first compound 0.03162 µM", "result": 0.851}, {"measurement": "relative viability", "setting": "[11]; first compound 0.1 µM", "result": 1.01}, {"measurement": "relative viability", "setting": "[11]; first compound 0.3162 µM", "result": 1.04}, {"measurement": "relative viability", "setting": "[11]; first compound 1 µM", "result": 0.968}, {"measurement": "relative viability", "setting": "[12]; first compound 0.01 µM", "result": 0.971}, {"measurement": "relative viability", "setting": "[12]; first compound 0.03162 µM", "result": 0.863}, {"measurement": "relative viability", "setting": "[12]; first compound 0.1 µM", "result": 0.824}, {"measurement": "relative viability", "setting": "[12]; first compound 0.3162 µM", "result": 1.03}, {"measurement": "relative viability", "setting": "[12]; first compound 1 µM", "result": 0.761}, {"measurement": "relative viability", "setting": "[13]; first compound 0.01 µM", "result": 1.14}, {"measurement": "relative viability", "setting": "[13]; first compound 0.03162 µM", "result": 1.13}, {"measurement": "relative viability", "setting": "[13]; first compound 0.1 µM", "result": 1.14}, {"measurement": "relative viability", "setting": "[13]; first compound 0.3162 µM", "result": 1.23}, {"measurement": "relative viability", "setting": "[13]; first compound 1 µM", "result": 0.87}, {"measurement": "relative viability", "setting": "[14]; first compound 0.01 µM", "result": 1.38}, {"measurement": "relative viability", "setting": "[14]; first compound 0.03162 µM", "result": 1.24}, {"measurement": "relative viability", "setting": "[14]; first compound 0.1 µM", "result": 1.24}, {"measurement": "relative viability", "setting": "[14]; first compound 0.3162 µM", "result": 1.28}, {"measurement": "relative viability", "setting": "[14]; first compound 1 µM", "result": 0.899}, {"measurement": "relative viability", "setting": "[15]; first compound 0.01 µM", "result": 0.912}, {"measurement": "relative viability", "setting": "[15]; first compound 0.03162 µM", "result": 1.02}, {"measurement": "relative viability", "setting": "[15]; first compound 0.1 µM", "result": 0.919}, {"measurement": "relative viability", "setting": "[15]; first compound 0.3162 µM", "result": 0.797}, {"measurement": "relative viability", "setting": "[15]; first compound 1 µM", "result": 0.656}, {"measurement": "relative viability", "setting": "[16]; first compound 0.01 µM", "result": 1.08}, {"measurement": "relative viability", "setting": "[16]; first compound 0.03162 µM", "result": 1.08}, {"measurement": "relative viability", "setting": "[16]; first compound 0.1 µM", "result": 1.31}, {"measurement": "relative viability", "setting": "[16]; first compound 0.3162 µM", "result": 1.09}, {"measurement": "relative viability", "setting": "[16]; first compound 1 µM", "result": 0.419}, {"measurement": "relative viability", "setting": "[17]; first compound 0.01 µM", "result": 0.811}, {"measurement": "relative viability", "setting": "[17]; first compound 0.03162 µM", "result": 0.81}, {"measurement": "relative viability", "setting": "[17]; first compound 0.1 µM", "result": 0.83}, {"measurement": "relative viability", "setting": "[17]; first compound 0.3162 µM", "result": 0.872}, {"measurement": "relative viability", "setting": "[17]; first compound 1 µM", "result": 0.883}, {"measurement": "relative viability", "setting": "[18]; first compound 0.01 µM", "result": 0.744}, {"measurement": "relative viability", "setting": "[18]; first compound 0.03162 µM", "result": 0.85}, {"measurement": "relative viability", "setting": "[18]; first compound 0.1 µM", "result": 1.09}, {"measurement": "relative viability", "setting": "[18]; first compound 0.3162 µM", "result": 0.921}, {"measurement": "relative viability", "setting": "[18]; first compound 1 µM", "result": 0.843}, {"measurement": "relative viability", "setting": "[19]; first compound 0.01 µM", "result": 1.03}, {"measurement": "relative viability", "setting": "[19]; first compound 0.03162 µM", "result": 1.02}, {"measurement": "relative viability", "setting": "[19]; first compound 0.1 µM", "result": 0.972}, {"measurement": "relative viability", "setting": "[19]; first compound 0.3162 µM", "result": 1.12}, {"measurement": "relative viability", "setting": "[19]; first compound 1 µM", "result": 0.871}, {"measurement": "relative viability", "setting": "[20]; first compound 0.01 µM", "result": 0.827}, {"measurement": "relative viability", "setting": "[20]; first compound 0.03162 µM", "result": 0.785}, {"measurement": "relative viability", "setting": "[20]; first compound 0.1 µM", "result": 0.855}, {"measurement": "relative viability", "setting": "[20]; first compound 0.3162 µM", "result": 0.951}, {"measurement": "relative viability", "setting": "[20]; first compound 1 µM", "result": 1.02}]}
